Assays:
[1] = test system: Velvetleaf, Abutilon theophrasti; assay: Postemergence herbicidal evaluation, ABUTH; assay type: in vivo, Medic.
In short: (§1)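 Approximately two-week-old seedlings received a spray of active compound equivalent to about 0.0157–0.500 kg/ha. The carrier was acetone/water (50/50) with 0.5% TWEEN 20. Plants were kept on greenhouse benches and assessed 0–9 versus control after four to five weeks.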

[2] = test system: Morningglory Spp., Ipomoea Spp.; assay: Postemergence herbicidal evaluation, IPOSS; assay type: in vivo; conditions: 0.2500 kg/ha
Experimental: (§2) In the tests, seedling plants are grown in jiffy flats for about two weeks. The test compounds are dispersed in 50/50 acetone/water mixtures containing 0.5% TWEEN®20, a polyoxyethylene sorbitan monolaurate surfactant of Atlas Chemical Industries, in sufficient quantities to provide the equivalent of about 0.0157 kg to 0.500 kg per hectare of active compound when applied to the plants through a spray nozzle operating at 40 psi for a predetermined time. After spraying, the plants are placed on greenhouse benches and are cared for in accordance with conventional greenhouse procedures. From four to five weeks after treatment, the seedling plants are examined and rated according to the rating system set forth below. Where more than one test is involved for a given compound, the data are averaged.
(§3) Results of herbicide evaluation are expressed on a rating scale (0-9). The scale is based upon a visual observation of plant stand, vigor, malformation, size, chlorosis and overall plant appearance as compared with a control.

[3] = test system: Barnyardgrass, Echinochloa crus-galli; assay: Postemergence herbicidal evaluation, ECHCG; assay type: in vivo, (L.) Beau
In short: as §1

[4] = test system: Soybean, Williams, Glycine max; assay: Postemergence herbicidal evaluation, GLXMAW; assay type: in vivo, (L.) Merr. cv Williams; conditions: 0.0630 kg/ha
In short: as §1

Soybean, Glycine max = assay: Postemergence herbicidal evaluation, GLXMA; assay type: in vivo, (L.) Merr.; conditions: 0.2500 kg/ha
Experimental: as §2, §3

Corn, Field, Zea mays = assay: Postemergence herbicidal evaluation, ZEAMX; assay type: in vivo, L.
In short: as §1

[5] = test system: Sicklepod, Cassia obtusifolia; assay: Preemergence herbicidal evaluation, CASOB; assay type: in vivo, L.; conditions: 0.2500 kg/ha
In short: (§4)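 Preemergence spray, aqueous acetone solution, ~0.0156–0.500 kg/ha, applied to freshly seeded soil cups. Greenhouse, 4–5 wk. Visual 0–9 rating vs untreated control (stand, vigor, malformation, size, chlorosis, overall appearance).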

[6] = test system: Lambsquarters, Common, Chenopodium album; assay: Preemergence herbicidal evaluation, CHEAL; assay type: in vivo, L.; conditions: 0.2500 kg/ha
Description: as §3
(§5) The preemergence herbicidal activity of the test compounds of the present invention is exemplified by the following tests in which the seeds of a variety of monocotyledonous and dicotyledonous plants are separately mixed with potting soil and planted on top of approximately one inch of soil in separate pint cups. After planting, the cups are sprayed with the selected aqueous acetone solution containing test compound in sufficient quantity to provide the equivalent of about 0.0156 to 0.500 kg per hectare of test compound per cup. The treated cups are then placed on greenhouse benches, watered and cared for in accordance with conventional greenhouse procedures. From four to five weeks after treatment, the tests are terminated and each cup is examined and rated according to the rating system provided in Example 185.
(§6) The compounds evaluated are reported by compound number given in Example 185.

Galium, Galium aparine = assay: Preemergence herbicidal evaluation, GALAP; assay type: in vivo; conditions: 0.2500 kg/ha
Description: as §3, §5, §6

[7] = test system: Foxtail, Green, Setaria viridis; assay: Preemergence herbicidal evaluation, SETVI; assay type: in vivo, (L.) Beau; conditions: 0.2500 kg/ha
In short: as §4

[8] = test system: Rice, Tebonnet, Oryza sativa; assay: Preemergence herbicidal evaluation, ORYSAT; assay type: in vivo, (L.) Tebonnet; conditions: 0.2500 kg/ha
In short: as §4

[9] = test system: Wheat, Winter, cv Riband, Triticum aestivum; assay: Preemergence herbicidal evaluation, TRZAWR; assay type: in vivo; conditions: 0.2500 kg/ha
In short: as §4

CYPSE Flatsedge [10] = assay: Preemergence weed control, flooded paddy (Table III); assay type: in vivo, Cyperus serotinus; parameters: scale not given here
Experimental: Preemergence herbicidal activity under flooded paddy conditions is determined as follows: plant seeds or propagating organs are planted in the top 0.5 cm of silt loam soil in 32 oz. plastic containers with a diameter of 10.5 cm and no drainage holes. Water is added to these containers and maintained at 1.5 to 3 cm above the soil surface for the duration of the experiment. The test compounds are applied as aqueous/acetone mixtures 50/50 v/v pipetted directly into the flood water to give the equivalent of about 0.0313 to 0.500 kg/ha of active ingredient. The treated containers are placed on greenhouse benches and cared for in accordance with conventional greenhouse procedures. Three to four weeks after treatment, the test is terminated and each container is examined and herbicidal effect rated according to the rating system provided in Example 185. The compounds evaluated are reported by compound number given in Example 185.

ORYSAT Rice, Tebonnet [11] = assay: Tolerance of transplanted rice to post-transplant application (Table III); assay type: in vivo, Oryza sativa; parameters: scale not given here; conditions: crop tolerance
Experimental: The tolerance of transplanted rice to post-transplanted herbicide applications is determined as follows: two ten-day-old rice seedlings (cv. Tebonnet) are transplanted into silt loam soil in 32 oz. plastic containers with a diameter of 10.5 cm and no drainage holes. After transplanting, the containers are flooded and the water level is maintained at 1.5 to 3 cm above the soil surface. Three days after transplanting, the flooded soil surface of the containers is treated with the selected aqueous/acetone 50/50 v/v mixture containing the test compounds to provide the equivalent of about 0.0313 to 0.500 kg/ha of active ingredient. The treated containers are placed on greenhouse benches, watered such that the water level is maintained as stated above, and cared for in accordance with conventional greenhouse procedures. Three to four weeks after treatment, the test is terminated and each container is examined and herbicidal effect rated according to the rating system provided in Example 185. The compounds evaluated are reported by compound number given in Example 185.

CYPSE Flatsedge [12] = assay: Postemergence weed control, flooded paddy (Table IV); assay type: in vivo, Cyperus serotinus; parameters: scale not given here
In short: (§7)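 Rating scale scores taken 3–4 weeks post-treatment; compounds dosed in flood water (~0.0313–0.500 kg/ha) onto weeds 3–5 cm tall and 1.5–2.5 leaf rice under 1.5–3 cm standing water.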

[13] = test system: SAGPY Arrowhead (Pygmaea); assay: as above; assay type: in vivo, Sagittaria pygmaea; parameters: scale not given here
In short: as §7

ORYSAT Rice, Tebonnet [14] = assay: Rice tolerance, flooded paddy (Table IV); assay type: in vivo, Oryza sativa; parameters: scale not given here; conditions: crop tolerance
In short: as §7

Compound | herbicide rating (0-9) ([1]; 0.2500 kg/ha) | herbicide rating (0-9) [2] | herbicide rating (0-9) ([3]; 0.2500 kg/ha) | herbicide rating (0-9) (Soybean, Glycine max) | herbicide rating (0-9) (Corn, Field, Zea mays; 0.2500 kg/ha) | herbicide rating (0-9) [5] | herbicide rating (0-9) [6] | herbicide rating (0-9) (Galium, Galium aparine) | herbicide rating (0-9) [7] | herbicide rating (0-9) [8] | herbicide rating (0-9) [9] | herbicidal effect rating (CYPSE Flatsedge [10]; 0.0625 kg/ha) | herbicidal effect rating (CYPSE Flatsedge [10]; 0.1250 kg/ha) | herbicidal effect rating (CYPSE Flatsedge [10]; 0.2500 kg/ha) | herbicidal effect rating (CYPSE Flatsedge [10]; 0.5000 kg/ha) | herbicidal effect rating (ORYSAT Rice, Tebonnet [11]; 0.0313 kg/ha) | herbicidal effect rating (ORYSAT Rice, Tebonnet [11]; 0.0625 kg/ha) | herbicidal effect rating (ORYSAT Rice, Tebonnet [11]; 0.1250 kg/ha) | herbicidal effect rating (ORYSAT Rice, Tebonnet [11]; 0.2500 kg/ha) | herbicidal effect rating (ORYSAT Rice, Tebonnet [11]; 0.5000 kg/ha) | further results
COC(=O)C(C)Oc1ccc(C)cc1-c1nsc2ccc(-n3c(=O)cc(C(F)(F)F)n(C)c3=O)cc12 (stereo not drawn) [Compound 3] | 9.0 | 9.0 | 9.0 | 7.5 | 9.0 | 9.0 | 9.0 | 7.6 | 9.0 | 6.8 | 6.3 | 0.0 | 0.0 | 2.0 | 4.0 | 2.0 | 2.0 | 3.0 | 4.0 | 4.0 | herbicide rating (0-9) ([1]; 0.0630 kg/ha): 9.0; herbicide rating (0-9) ([3]; 0.0630 kg/ha): 9.0; herbicide rating (0-9) [4]: 7.0; herbicide rating (0-9) (Corn, Field, Zea mays; 0.0630 kg/ha): 8.3; herbicidal effect rating (CYPSE Flatsedge [10]; 0.0313 kg/ha): 0.0; herbicidal effect rating (CYPSE Flatsedge [12]; 0.1250 kg/ha): 0.0; herbicidal effect rating (CYPSE Flatsedge [12]; 0.2500 kg/ha): 0.0; herbicidal effect rating (CYPSE Flatsedge [12]; 0.5000 kg/ha): 0.0; herbicidal effect rating ([13]; 0.1250 kg/ha): 0.0; herbicidal effect rating ([13]; 0.2500 kg/ha): 0.0; herbicidal effect rating ([13]; 0.5000 kg/ha): 0.0; herbicidal effect rating (ORYSAT Rice, Tebonnet [14]; 0.1250 kg/ha): 3.0; herbicidal effect rating (ORYSAT Rice, Tebonnet [14]; 0.2500 kg/ha): 3.0; herbicidal effect rating (ORYSAT Rice, Tebonnet [14]; 0.5000 kg/ha): 3.0
Cn1c(C(F)(F)F)cc(=O)n(-c2ccc3snc(-c4ccccc4)c3c2)c1=O [Compound 4, 1-Methyl-3-(3-phenyl-1,2-benzisothiazol-5-yl)-6-(trifluoromethyl)-2,4(1H,3H)-pyrimidinedione] | 9.0 | 9.0 | 8.0 | 9.0 | 3.0 | 9.0 | 9.0 | 9.0 | 9.0 | 7.0 | 7.0 | 2.0 | 9.0 | 9.0 | 9.0 | 4.0 | 7.0 | 7.0 | 8.0 | 8.0 | herbicidal effect rating (CYPSE Flatsedge [12]; 0.1250 kg/ha): 7.0; herbicidal effect rating (CYPSE Flatsedge [12]; 0.2500 kg/ha): 7.0; herbicidal effect rating (CYPSE Flatsedge [12]; 0.5000 kg/ha): 9.0; herbicidal effect rating ([13]; 0.1250 kg/ha): 6.0; herbicidal effect rating ([13]; 0.2500 kg/ha): 9.0; herbicidal effect rating ([13]; 0.5000 kg/ha): 9.0; herbicidal effect rating (ORYSAT Rice, Tebonnet [14]; 0.1250 kg/ha): 7.0; herbicidal effect rating (ORYSAT Rice, Tebonnet [14]; 0.2500 kg/ha): 8.0; herbicidal effect rating (ORYSAT Rice, Tebonnet [14]; 0.5000 kg/ha): 8.0
CCc1ccc(-c2nsc3ccc(-n4c(=O)cc(C(F)(F)F)n(C)c4=O)cc23)cc1 [Compound 5, 3-[3-(p-Ethylphenyl)-1,2-benzisothiazol-5-yl]-1-methyl-6-(trifluoromethyl)-2,4 (1H,3H)-pyrimidinedione] | 9.0 | 9.0 | 7.0 | 7.0 | 3.0 | 9.0 | 9.0 | 6.0 | 9.0 | 7.0 | 4.0 | 2.0 | 6.0 | 8.0 | 7.0 | 2.0 | 3.0 | 4.0 | 5.0 | 7.0 | herbicidal effect rating (CYPSE Flatsedge [10]; 0.0313 kg/ha): 0.0; herbicidal effect rating (CYPSE Flatsedge [12]; 0.1250 kg/ha): 0.0; herbicidal effect rating (CYPSE Flatsedge [12]; 0.2500 kg/ha): 0.0; herbicidal effect rating (CYPSE Flatsedge [12]; 0.5000 kg/ha): 0.0; herbicidal effect rating ([13]; 0.1250 kg/ha): 4.0; herbicidal effect rating ([13]; 0.2500 kg/ha): 6.0; herbicidal effect rating ([13]; 0.5000 kg/ha): 8.0; herbicidal effect rating (ORYSAT Rice, Tebonnet [14]; 0.1250 kg/ha): 4.0; herbicidal effect rating (ORYSAT Rice, Tebonnet [14]; 0.2500 kg/ha): 6.0; herbicidal effect rating (ORYSAT Rice, Tebonnet [14]; 0.5000 kg/ha): 8.0

Source: patent US6156700A, “3-(1,2-Benzisothiazol- and isoxazol-5-yl)-2,4(1H,3H)-pyrimidinedione or thione and 3-(1,2-benzisothiazol- and isoxazol-5-yl)-4(3H)-pyrimidinone or thione herbicidal agents” (American Cyanmid Company, priority 1998, dated 2000)
